Test results taken from ChEMBL document CHEMBL5674860, “Optimized Dual-Glo Assay to identify co-culture-induced drug vulnerabilities in 3D CRC models” (2024).
Values joined by “and” are separate entries in the source; they are usually repeats but may differ in a detail not shown here. Equal values may be shown once. Square brackets hold non-standard residues; d marks the D form. Peptide text beside a SMILES is read from it. Arg(Me) = CNC(=N)NCCC[C@H](N)C(=O)O; d3Pal = N[C@H](Cc1cccnc1)C(=O)O; azaGly = NNC(=O)O

What was measured:
Format in all cases: functional, Homo sapiens
Design in all cases: dose or concentration left out as unconfirmed
Colon cancer organoid [1] = assay: Optimized Dual-Glo assay to identify co-culture induced drug vulnerabilities using donated chemical probes and chemogenomics kinase set in O06 CRC organoid and F06 CAF mono and co-culture. […] Cell viability is reported both mono and co-culture models.
Colon cancer organoid [2] = assay: Optimized Dual-Glo assay to identify co-culture induced drug vulnerabilities using donated chemical probes and chemogenomics kinase set in O20 CRC organoid and F20 CAF mono and co-culture. […] Cell viability is reported both mono and co-culture models.
Colon cancer organoid [3] = assay: Optimized Dual-Glo assay to identify co-culture induced drug vulnerabilities using donated chemical probes and chemogenomics kinase set in O14 CRC organoid and F14 CAF mono and co-culture. […] Cell viability is reported both mono and co-culture models.
[4] = Culture type Co-Culture, Transduced with Lucferase2-P2A-EGFP lentivirus
[5] = Culture type Co-Culture, Transduced with Renilla-dsRed lentivirus
[6] = Culture type Mono-Culture, Transduced with Lucferase2-P2A-EGFP lentivirus
[7] = Culture type Mono-Culture, Transduced with Renilla-dsRed lentivirus

SMILES	Cell Viability (Colon cancer organoid [1]; [4])	Cell Viability (Colon cancer organoid [1]; [5])	Cell Viability (Colon cancer organoid [1]; [6])	Cell Viability (Colon cancer organoid [1]; [7])	Cell Viability (Colon cancer organoid [2]; [4])	Cell Viability (Colon cancer organoid [2]; [5])	Cell Viability (Colon cancer organoid [2]; [6])	Cell Viability (Colon cancer organoid [2]; [7])	Cell Viability (Colon cancer organoid [3]; [4])	Cell Viability (Colon cancer organoid [3]; [5])	Cell Viability (Colon cancer organoid [3]; [6])	Cell Viability (Colon cancer organoid [3]; [7])
CCOc1cn(-c2ccc(F)cc2C)nc1C(=O)Nc1ccc(Oc2ccnc3cc(OC)c(OC)cc23)c(F)c1	87.51% and 89.4828%	84.5689% and 64.7371%	86.2071% and 96.2779%	101.871% and 88.7626%	230.831% and 191.214%	78.4446% and 96.4847%	106.501% and 84.8653%	96.6073% and 93.6855%	102.771% and 90.3388%	85.9243% and 77.553%	131.662% and 123.945%	95.388% and 87.085%
Cc1ccc2nc(NCCN)c3ncc(C)n3c2c1.O=C(O)C(F)(F)F.O=C(O)C(F)(F)F	94.0156%	112.188%	113.649%	154.019%	230.973%	67.6056%	101.148%	93.4293%	82.3615%	114.809%	73.2048%	109.465%
Cn1cc(C2=C(c3cn(C4CCN(Cc5ccccn5)CC4)c4ccccc34)C(=O)NC2=O)c2ccccc21 [ENZASTAURIN]	65.6638%	92.7001%	58.602%	101.572%	54.9568%	78.6109%	53.3905%	66.2903%	77.4844%	94.2381%	86.5336%	83.0179%
C[C@H](NC(=O)c1cnc2n1[C@](C)(Cc1ccc(C#N)cc1)C(=O)N2c1cc(Cl)c(F)c(Cl)c1)C(=O)NC1(c2ccccn2)CC1 [BI 1950]	123.241%	151.567%	111.279%	104.666%	121.807%	97.0159%	112.646%	94.255%	114.581%	100.802%	131.753%	112.137%
Cc1cc(F)c(C(=O)Nc2cccc(-c3nncn3C(C)C)n2)cc1-n1cnc(C2CC2)c1 [SELONSERTIB]	89.6649%	105.018%	105.834%	92.1767%	141.674%	89.2485%	97.5113%	87.9562%	131.466%	127.666%	127.2%	83.0493%
Cc1cc(CN)cc(C)c1-c1ncn(C)c1-c1cncn1C	121.461%	141.638%	159.088%	144.43%	127.582%	117.48%	113.288%	98.6435%	82.5441%	115.965%	119.104%	86.3829%
CC1CCN(c2ccnc(NCc3cn(C)cn3)n2)CC1 [TP-040]	72.882%	83.2209%	105.865%	110.509%	75.5826%	95.0735%	105.645%	103.982%	87.8979%	100.433%	106.891%	94.952%
C[C@@]1(Cc2ccc(C#N)cc2)C(=O)N(c2cc(Cl)cc(Cl)c2)c2ncc(C(=O)NC3(c4nc(C5CCC5)no4)CC3)n21 [BI 9446]	85.7019%	100.079%	74.4511%	102.688%	72.3076%	136.535%	95.8483%	102.524%	88.6006%	103.948%	113.423%	106.796%
COc1ccccc1S(=O)(=O)Nc1ccc2c(c1)CN(C)C(=O)N2	75.1061%	112.248%	98.6756%	116.533%	111.384%	99.8859%	75.6376%	98.229%	98.1337%	101.069%	91.805%	99.3977%
CCOc1ccn(-c2ccc(F)cc2)c(=O)c1C(=O)Nc1ccc(Oc2ccnc(N)c2Cl)c(F)c1 [BMS-777607]	91.8113%	94.0587%	160.363%	101.253%	100.473%	72.8578%	109.106%	74.8704%	80.1334%	87.7624%	119.97%	83.2963%
O=C(Nc1nc2cccc(-c3ccc(CN4CCS(=O)(=O)CC4)cc3)n2n1)C1CC1 [FILGOTINIB]	100.525%	92.8016%	121.161%	92.1067%	112.545%	86.0918%	106.088%	87.0807%	124.013%	111.823%	119.446%	102.655%
C=CC(=O)Nc1ccc2[nH]c(=O)n(C3CCN(Cc4ccc(-c5ccc6c(c5)NC(=O)CO6)cc4)CC3)c2c1 [RL2578]	88.4189%	104.707%	87.6184%	83.8435%	101.172%	98.7435%	76.3776%	83.481%	109.086%	76.9187%	101.444%	81.1144%
Cc1c(NC(=O)c2ccc(C(C)(C)C)cc2)cccc1-c1cn(C)c(=O)c(Nc2ccc(C(=O)N3CCOCC3)cc2)n1	105.279%	113.435%	83.7541%	97.4758%	109.579%	88.3582%	122.68%	92.088%	85.4676%	81.7664%	100.184%	91.8671%
O=C(O)c1ccc2c(c1)nc(Nc1cccc(Cl)c1)c1ccncc12 [SILMITASERTIB]	108.166%	80.6873%	78.7074%	100.788%	158.738%	81.7658%	95.6239%	79.8512%	93.7278%	109.514%	89.7197%	119.06%
FC(F)(F)c1ccc2c(c1)nc(-c1cccnc1)n2C1CC1 [MSD-CYP11B2-Negative-control]	103.115%	83.1787%	99.8949%	100.759%	98.8357%	114.7%	79.6989%	74.5522%	79.1334%	88.6801%	68.2082%	99.4361%
COc1cc(Nc2nccc(-c3cnn4nc(OC)ccc34)n2)cc(C(F)(F)F)c1	25.4978%	199.418%	18.9413%	49.3331%	11.0854%	189.711%	12.7509%	71.1906%	8.865%	107.014%	18.5626%	63.2458%
CNC(=N)NCCC[C@H](NC(=O)[C@H](CC(C)C)NC(=O)NNC(=O)[C@H](Cc1ccccc1)NC(=O)[C@H](CO)NC(=O)[C@H](CC(N)=O)NC(=O)[C@@H](Cc1cccnc1)NC(=O)[C@H](N)Cc1ccc(O)cc1)C(=O)NCC(N)=O [KISS1-543] (H-[dY][d3Pal]NSF[azaGly]L[Arg(Me)]G-NH2)	103.647%	101.302%	85.2773%	99.9886%	101.104%	120.489%	73.3632%	97.5472%	118.116%	72.7172%	93.1075%	78.975%
